Measured values from patent publication US20250387357A1 (SpringWorks Therapeutics, Inc., priority 2024, published 2025).

Legend:
[1] = Pharmacokinetic parameters and characteristics of mirdametinib (Table A); parameters: species or system human; conditions: in vivo
UGT and CES enzymes = experiment: Metabolism, primary pathway; conditions: full wording over r33-r36: Metabolism involves glucuronidation and oxidation via UGT and CES enzymes

- Excretion: Radioactivity in feces [1]: In feces: 27%
- Excretion: Radioactivity in urine [1]: In urine: 68%
- Excretion: Unchanged mirdametinib in urine [1]: In urine: 0.7%
- Excretion: Unchanged mirdametinib in urine and feces [1]: In urine and feces: 9%
- Metabolism primary pathway (UGT and CES enzymes): Metabolism involves
SMILES: O=C(NOC[C@H](O)CO)c1ccc(F)c(F)c1Nc1ccc(I)cc1F (single isomer, unassigned) [mirdametinib]
